In patent US20210301038A1, “POLYSIALIC ACID AND DERIVATIVES THEREOF, PHARMACEUTICAL COMPOSITION AND METHOD OF PRODUCING POLYSIALIC ACID” (Medizinische Hochschule Hannover (MHH), priority 2018, published 2021):
Structures can show the parent of a compound that is named as a salt.

Experiments:
[1] = tested on: layer II/III - layer V synapses in mPFC slices; experiment: TBS-induced LTP (fEPSP) in sham- and endoNF-treated mPFC slices from C57BL/6 mice; assay type: cell-based, mouse; settings: endoNF-treated slices; Ro 25-6981 0.3 μM; DP12 1 μg/ml; DP5 1 or 10 μg/ml; sarcosine 0.75 mM; SSR 504734 3 μM
Description: (§1) For endoNF treatment in C57BL/6J mice, slices were first allowed to recover for 20 min at room temperature (22-24° C.) in recording aCSF and were then placed in a 24-well plate to be incubated in 2 ml of aCSF without (sham) or with addition of endoNF (10 μg/ml) at 35° C. for 2 hours. The 24-well plate was installed in a water bath (ED, Julabo, Seelbach, Germany). For field excitatory postsynaptic potential (fEPSP) recordings in knockout and transgenic mice, mPFC slices were incubated in recording aCSF for >2 hours at room temperature before recordings. For patch-clamp recordings in knockout mice, slices were incubated first at 35° C. for 20 min and then at room temperature for >30 min before recordings started. The aCSF was continuously gassed with 95% O2/5% CO2 during all incubation steps and recordings.
(§2) Prefrontal slices (400 μm) were transferred to a submerged-type recording MC membrane chamber (volume 2 ml; Scientific Systems Design Inc., Mississauga, Ontario, Canada) perfused with oxygenated recording ACSF at a flow rate of 4 ml/min and maintained at room temperature (22-25° C.), unless stated otherwise in the “Results”-section given below. Field EPSPs were evoked and recorded using thin-walled glass electrodes (borosilicate glass, wall thickness 0.188, length 100, and outer diameter 1.5 mm, Hilgenberg, Malsfeld, Germany) filled with recording aCSF in 400 μm-thick mPFC slices. In order to stimulate electrically the input fibers of pyramidal cells, the stimulation electrode (0.3-0.5 MΩ) was inserted into layers II/III of the prelimbic cortex. The recording electrode (2-2.5 MΩ) was placed in the vicinity of dendrites and cell bodies of pyramidal neurons in layer V (Huang et al., 2004).
(§3) Before LTP induction, basal synaptic transmission was recorded in each slice and the relationship between stimulus intensity and fEPSP slope was measured. Basal fEPSPs were evoked at 0.05 Hz for at least 10 min. The supramaximal slope was determined by gradually increasing the stimulation intensity until a population spike in the fEPSP became first visible. The stimulation intensity was adjusted to elicit a basal fEPSP with a slope of approximately 50% of the supramaximal value.
(§4) LTP was induced by application of five trains of theta-burst stimulation (TBS) with an inter-theta-train interval of 20 s (Brennaman et al., 2011). Each train consisted of 8 bursts delivered at 5 Hz. Each burst consisted of four pulses delivered at 100 Hz. Duration of pulses was 0.2 ms. For calculation of the LTP level, the mean fEPSP slope was measured between 50-60 min after TBS delivery, and it was then normalized to mean baseline fEPSP slope during 0-10 min before TBS. Stimulus artifacts in representative fEPSP examples in figures were blanked to facilitate the perception of fEPSPs recorded in the mPFC. Recording and analysis of LTP in St8Sia4^−/− mice was performed in a blind manner.
The enzyme endosialidase NF (endoNF) (Stummeyer et al., 2005) and the short form of polysialic acid composed of 10 or twelve sialic acid residues (DP10 and DP12) were purified as described previously (Keys et al., 2014). Sialic acid (N-acetylneuraminic acid, DP1) and the pentamer of sialic acid sodium salt (DP5) were obtained from EY Laboratories (San Mateo, Calif., USA). DMB-labelled DP2 and DP12, and non-labelled avDP10-9OAc were synthesized in the laboratory of Rita Gerardy-Schahn (see sections Synthesis of DMB-DP2 and DMB-DP12 and Synthesis of avDP10-9OAc, respectively). […]

[2] = tested on: mPFC slices from St8sia4−/− mice; experiment: TBS-induced LTP in mPFC slices from ST8SIA4-deficient mice and wild-type littermates; assay type: cell-based, mouse; settings: Ro 25-6981 0.3 μM, DP12 1 μg/ml, sarcosine 0.75 mM
Description: as §1, §2, §3, §4

[3] = tested on: C57BL/6J mice with intra-mPFC endoNF injection; experiment: Novel object recognition test before and after intra-mPFC endoNF injection; assay type: in vivo, mouse
Description: Guide cannulas were fabricated using stainless steel tubing with outer/inner diameter Ø 0.711/0.483 mm (Science Products, Germany). Dummy cannulas were made from entomological pins, size 2, Ø 0.41 mm (FST, Germany). Chronic implantation of cannulas into the mPFC in mice was performed as described previously for intrahippocampal injections (Kochlamazashvili et al., 2012; Senkov et al., 2015; Senkov et al., 2006).
Acute injection of endoNF in vivo was done under a short isoflurane anesthesia. For intra-mPFC injection, we used a digitally controlled infusion system (UltraMicroPump, UMP3, and Micro4 Controller, WPI, USA) fed with a 10 μl-Hamilton syringe and NanoFil 135 μm (35 GA) beveled needle. The thin (135 μm) part of the needle went into the mouse brain during injection, whereas its thick part (430 μm) fit perfectly in the guide cannula (inside 483 μm). Injections were performed as follows: 1) a mouse was anesthetized with 1-3% isoflurane as during implantation; 2) it was put into the stereotaxic frame; 3) the dummy cannula was gently removed from the left guide cannula; 4) a NanoFil injecting needle was carefully placed inside of the guide cannula and advanced further down until reaching the marker (made with a permanent pen at the needle shank (430 μm) to visualize the point when the needle should reach the surface of the brain coming out of the guide cannula (equal to the length of guide cannula); 5) once the marker was reached, a slow (10 μm increment) step dial was used to deepen the needle into the brain; 6) endoNF (2 μg/μl) or vehicle was injected with the following settings: 250 nl per site as deep as 1.5 and 2.25 mm from the brain surface (total injection volume per hemisphere 500 nl, injection rate of 3 nl/s); 7) after injection was complete (˜5 min), the needle was left in the injection site for another 5 min and then gently removed; 8) the dummy cannula was then put back to its place; 9) the same procedure was performed for the right hemisphere. The whole injection process took approximately 20-25 min under isoflurane anesthesia, and the mice recovered rather quickly, starting to move in approximately 2-3 min after being returned to their home cages. Complete recovery of a mouse after such short anesthesia usually occurs within 3-5 min. After injection, mice were returned to their animal facility. Behavior experiments started on the day after injection at approximately the same time, so that we could perform cognitive tests 24 hours after injection.
A white open field arena (50×50×30 cm) was used in the novel object recognition task. All behavior was video recorded and analyzed automatically by software (ANY-maze, version 4.99, Stoelting Co., Wood Dale, Ill.). […]

[4] = tested on: NMDAR-EPSCs (GluN1/GluN2B receptors); experiment: Evoked NMDAR-EPSCs, whole-cell patch-clamp of layer V pyramidal neurons in sham- or endoNF-treated mPFC slices; assay type: cell-based, mouse; settings: 0.1 μM, in the presence of 5-HT4 antagonist RS 39604 (10 μM)
Text: Each mouse was quickly sacrificed by cervical dislocation. After decapitation, the brain was rapidly removed from the skull and placed in ice-cold artificial cerebrospinal fluid (aCSF) equilibrated with 95% O2/5% CO2, which was composed of the following (in mM): 250 sucrose, 24 NaHCO3, 25 glucose, 2.5 KCl, 1.25 NaH2PO4, 2 CaCl2, and 1.5 MgCl2 (osmolarity 345-350 mOsm/kg, pH 7.4). Using a VT1200S vibratome (Leica, Nussloch, Germany), coronal slices containing the prelimbic and infralimbic cortices (1.9-1.3 mm anterior to bregma) were cut 350 μm or 400 μm thick, for patch clamp and extracellular recordings, respectively, in the same sucrose-containing aCSF. Then, the slices were transferred to a slice holding chamber filled with recording aCSF (osmolarity 300-305 mOsm/kg, pH 7.4) that contained 120 mM NaCl instead of sucrose (Eckhardt et al., 2000) and was continuously gassed with 95% O2/5% CO2.
as §1
For whole-cell patch-clamp recordings, layer V pyramidal neurons were visualized using a SliceScope Pro 6000 equipped with a 40× water-immersion objective and infrared differential interference contrast microscopy (Scientifica, Uckfield, UK). Pyramidal cells were identified by their triangular soma and long apical dendrites, and synaptically evoked excitatory postsynaptic currents (EPSCs) were recorded using patch pipettes (3-5 MQ) fabricated using borosilicate glass capillaries (wall thickness 0.315, length 100, outer diameter 1.5 mm, Hilgenberg) and a DMZ-Zeitz puller (Zeitz Instruments GmbH, Martinsried, Germany). The intracellular pipette solution contained the following (in mM): 140.7 Cs-methane-sulfonate, 5 NaCl, 1 MgCl2, 0.2 EGTA, 10 HEPES, 3 ATP-Mg, 0.3 Na-GTP, and 3.1 QX-314 (osmolarity 295 mOsm/kg, adjusted to pH 7.2 with CsOH). EPSCs were evoked by electrical pulses (0.2 ms) at 0.033 Hz via a glass pipette placed in layer II/III of the mPFC (identically to fEPSPs). Mixed EPSCs showing a fast AMPAR-mediated component and a slow NMDAR-mediated component were recorded at a −60 mV holding potential in whole-cell voltage-clamp mode in normal aCSF. The stimulation intensity was adjusted to evoke mixed EPSCs with amplitudes of approximately 300 pA. The slow NMDAR-mediated component of EPSCs was pharmacologically isolated at −60 mV in modified aCSF containing low Mg^2+ (0.1 mM) and high Ca^2+ (3.2 mM, for adjustment of divalent cation concentrations), the selective antagonist of α-amino-3-hydroxy-5-methyl-4-isoxazolepropionic acid (AMPA)/kainate receptors NBQX (10 μM), and the selective antagonist of γ-aminobutyric acid (GABA)B receptors CGP-55845 (2 μM) (Chen et al., 2003). The washout of Mg^2+ required at least 25 min. Recordings at a holding potential near the resting membrane potential allowed us to obtain stable NMDAR-EPSC recordings from pyramidal cells lasting for 1-1.5 hours. Series resistance (Rs, range 10-25 MΩ) was compensated (20-30%) and monitored continuously. Neurons in which Rs changed by more than 20% throughout the experiment were not included in the analysis. In voltage-clamp mode, membrane potential was not corrected for liquid junction potential. […]

Structure (SMILES): O=C(N[C@@H](c1ccccc1)[C@@H]1CCCCN1)c1cccc(C(F)(F)F)c1Cl [SSR 504734, 2-chloro-N—[(S)-phenyl[(2S)-piperidin-2-yl]methyl]-3-trifluoromethyl benzamide]
- LTP level 50-60 min after TBS [1]: rescued LTP

Structure (SMILES): CNCC(=O)O [sarcosine, N-methylglycine]
- LTP level 50-60 min after TBS [1]: fully restored to sham levels
- LTP magnitude ([2]; St8sia4+/+ mice): no effect
- LTP level 50-60 min after TBS ([2]; St8sia4−/− mice): full restoration of LTP levels
- novel object recognition after intra-mPFC endoNF injection ([3]; 30 min before encoding, sarcosine 600 mg/kg i.p. (d2), DP12 (d5) and DP1 (d6) 1 mg/kg intranasally): fully alleviated
- novel object recognition before endoNF injection ([3]; d-1, 600 mg/kg i.p. 30 min before the encoding phase): normal object recognition

Structure (SMILES): [H]/N=C(/NCCCCC)N/N=C/c1c[nH]c2ccc(OC)cc12 [tegaserod, tegaserod maleate]
- inhibition of NMDAR-EPSC amplitude ([4]; endoNF-treated slices): ~30%
- inhibition of NMDAR-EPSC amplitude ([4]; sham-treated slices): ~50%
